According to ChEMBL document CHEMBL4419173, “Small-molecule inhibitors targeting g-protein-coupled rho guanine nucleotide exchange factors” (2014):
Calls of active or inactive are those of the source. The calls are words filed in the database; no cut-off is given here.

Key:
Mus musculus [1] = species on record: Mus musculus; assay: Inhibition of RhoGEF in mouse NIH/3T3 cells assessed as inhibition of 10% calf serum-induced RhoA-GTP formation by measuring RhoA-GTP level at 30 uM incubated for 24 hrs by densitometry relative to control (reference value: 2.15); assay type: cell-based
Mus musculus [2] = species on record: Mus musculus; assay: Inhibition of RhoGEF in mouse NIH/3T3 cells assessed as inhibition of 10% calf serum-induced RhoA-GTP formation by measuring RhoA-GTP level at 10 uM incubated for 24 hrs by densitometry relative to control (reference value: 2.15); assay type: cell-based
MCF7 [3] = assay: Inhibition of RhoGEF in human MCF7 cells derived mammospheres assessed as inhibition of 10% calf serum-induced RhoA-GTP formation by measuring relative RhoA-GTP level at 5 uM in presence of 5 uM Rhosin/G04 incubated for 24 hrs by densitometry (reference value: 1); assay type: cell-based
MCF7 [4] = assay: Inhibition of RhoGEF in human MCF7 cells derived mammospheres assessed as inhibition of 10% calf serum-induced RhoA-GTP formation by measuring relative RhoA-GTP level at 5 uM incubated for 24 hrs by densitometry (reference value: 1); assay type: cell-based
[5] = test system: Transforming protein RhoA (Homo sapiens), P61586 [Q63L]; assay: Inhibition of constitutively active RhoA Q63L mutant (unknown origin) expressed in mouse NIH/3T3 cells assessed as reduction in 10% calf serum-induced actin stress fiber formation at 50 uM by rhodamine-phalloidin staining based assay; assay type: cell-based
[6] = target: Rho GTPase-activating protein 35/Transforming protein RhoA (Homo sapiens) (UniProt P61586+Q9NRY4); assay: Inhibition of human p190 expressed in mouse NIH/3T3 cells assessed as reduction in human full length RhoA (1 to 193 residues) interaction with p190 at 50 to 100 uM incubated for 1 hr by Western blot analysis based His-RhoA pull-down assay; assay type: cell-based
[7] = target: CDC42/Intersectin-1 (Homo sapiens) (UniProt P60953+Q15811); assay: Inhibition of GST-tagged human intersectin-1 RhoGEF (1227 to 1571 residues) expressed in mouse NIH/3T3 cells assessed as reduction in human full length Cdc42 (1 to 191 residues) interaction with intersectin-1 RhoGEF at 50 to 200 uM incubated for 1 hr by Western blot analysis based pull-down assay; assay type: cell-based
Chain of CDC42/Intersectin-1 (Homo sapiens) (P60953 whole entry, looked up, the tested form may be a part): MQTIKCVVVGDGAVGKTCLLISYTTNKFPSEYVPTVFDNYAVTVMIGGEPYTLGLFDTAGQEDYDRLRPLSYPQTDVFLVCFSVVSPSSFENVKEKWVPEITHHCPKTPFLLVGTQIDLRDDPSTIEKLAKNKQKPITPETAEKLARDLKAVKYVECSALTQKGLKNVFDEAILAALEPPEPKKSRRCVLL
Chain of CDC42/Intersectin-1 (Homo sapiens) (Q15811 whole entry, looked up, the tested form may be a part): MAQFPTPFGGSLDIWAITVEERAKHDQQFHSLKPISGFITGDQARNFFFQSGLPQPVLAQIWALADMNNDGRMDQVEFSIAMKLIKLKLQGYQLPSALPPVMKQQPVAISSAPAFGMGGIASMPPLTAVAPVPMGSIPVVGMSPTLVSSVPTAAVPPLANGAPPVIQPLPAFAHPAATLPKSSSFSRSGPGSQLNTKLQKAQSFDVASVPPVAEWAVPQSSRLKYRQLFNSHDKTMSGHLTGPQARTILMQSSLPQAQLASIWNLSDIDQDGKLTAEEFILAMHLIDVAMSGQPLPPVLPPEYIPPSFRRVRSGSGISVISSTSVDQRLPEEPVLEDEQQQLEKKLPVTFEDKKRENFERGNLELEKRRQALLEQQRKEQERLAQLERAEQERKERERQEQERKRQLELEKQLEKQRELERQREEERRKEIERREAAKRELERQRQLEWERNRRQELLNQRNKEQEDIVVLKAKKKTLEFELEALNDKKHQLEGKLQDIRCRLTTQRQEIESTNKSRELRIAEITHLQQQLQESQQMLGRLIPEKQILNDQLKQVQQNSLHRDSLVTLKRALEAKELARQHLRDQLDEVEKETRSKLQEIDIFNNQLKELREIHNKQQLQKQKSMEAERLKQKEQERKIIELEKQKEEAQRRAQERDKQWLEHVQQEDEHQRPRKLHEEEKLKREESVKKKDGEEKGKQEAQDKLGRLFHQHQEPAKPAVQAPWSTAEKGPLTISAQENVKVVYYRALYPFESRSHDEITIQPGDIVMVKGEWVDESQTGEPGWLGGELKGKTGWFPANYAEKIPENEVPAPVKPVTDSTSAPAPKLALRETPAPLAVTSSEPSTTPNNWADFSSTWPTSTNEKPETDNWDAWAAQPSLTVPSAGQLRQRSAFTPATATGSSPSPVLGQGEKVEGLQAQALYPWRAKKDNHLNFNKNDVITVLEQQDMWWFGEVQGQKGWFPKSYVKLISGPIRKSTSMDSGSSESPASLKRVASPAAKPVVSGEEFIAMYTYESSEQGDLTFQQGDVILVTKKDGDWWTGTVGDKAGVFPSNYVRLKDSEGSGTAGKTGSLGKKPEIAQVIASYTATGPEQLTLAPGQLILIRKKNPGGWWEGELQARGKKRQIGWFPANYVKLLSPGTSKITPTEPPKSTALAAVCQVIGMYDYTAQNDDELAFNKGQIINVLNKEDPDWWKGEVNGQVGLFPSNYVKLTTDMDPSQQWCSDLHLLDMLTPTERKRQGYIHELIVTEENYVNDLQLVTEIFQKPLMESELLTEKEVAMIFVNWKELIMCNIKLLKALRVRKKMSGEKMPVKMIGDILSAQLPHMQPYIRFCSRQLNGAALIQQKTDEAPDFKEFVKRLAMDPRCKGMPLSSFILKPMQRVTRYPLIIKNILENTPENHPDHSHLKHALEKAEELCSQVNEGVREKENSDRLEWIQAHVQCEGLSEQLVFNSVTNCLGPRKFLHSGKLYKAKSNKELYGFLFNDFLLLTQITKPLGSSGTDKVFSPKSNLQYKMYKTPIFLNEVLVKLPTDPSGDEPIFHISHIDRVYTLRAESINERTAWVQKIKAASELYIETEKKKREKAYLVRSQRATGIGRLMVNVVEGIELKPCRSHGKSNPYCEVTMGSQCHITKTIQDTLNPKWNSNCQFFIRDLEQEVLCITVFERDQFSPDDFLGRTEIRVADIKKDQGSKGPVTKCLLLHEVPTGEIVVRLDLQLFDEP

Mus musculus [8] = species on record: Mus musculus; assay: Inhibition of RhoGEF-mediated Rac1 signaling in mouse NIH/3T3 cells assessed as reduction in PDGF-stimulated Rac1-mediated lamellipodia formation at 10 to 30 uM; assay type: cell-based
MCF7 [9] = assay: Inhibition of RhoGEF in human MCF7 cells derived mammospheres assessed as inhibition of 10% calf serum-induced RhoA-GTP formation by measuring relative RhoA-GTP level at 10 uM incubated for 24 hrs by densitometry (reference value: 1); assay type: cell-based
Mus musculus [10] = species on record: Mus musculus; assay: Inhibition of RhoGEF-mediated RhoA signaling in mouse NIH/3T3 cells assessed as inhibition of serum -induced phospho-MLC formation at 10 to 30 uM incubated for 24 hrs by densitometry; assay type: cell-based
[11] = target: Rho guanine nucleotide exchange factor 12 (Homo sapiens, UniProt Q9NZN5, V1099A); assay: Binding affinity to recombinant human LARG (765 to 1138 residues) V1099A mutant by microscale thermophoresis analysis
Chain of Rho guanine nucleotide exchange factor 12 (Homo sapiens, UniProt Q9NZN5, V1099A) (Q9NZN5 2-1544 V1099A limits assumed): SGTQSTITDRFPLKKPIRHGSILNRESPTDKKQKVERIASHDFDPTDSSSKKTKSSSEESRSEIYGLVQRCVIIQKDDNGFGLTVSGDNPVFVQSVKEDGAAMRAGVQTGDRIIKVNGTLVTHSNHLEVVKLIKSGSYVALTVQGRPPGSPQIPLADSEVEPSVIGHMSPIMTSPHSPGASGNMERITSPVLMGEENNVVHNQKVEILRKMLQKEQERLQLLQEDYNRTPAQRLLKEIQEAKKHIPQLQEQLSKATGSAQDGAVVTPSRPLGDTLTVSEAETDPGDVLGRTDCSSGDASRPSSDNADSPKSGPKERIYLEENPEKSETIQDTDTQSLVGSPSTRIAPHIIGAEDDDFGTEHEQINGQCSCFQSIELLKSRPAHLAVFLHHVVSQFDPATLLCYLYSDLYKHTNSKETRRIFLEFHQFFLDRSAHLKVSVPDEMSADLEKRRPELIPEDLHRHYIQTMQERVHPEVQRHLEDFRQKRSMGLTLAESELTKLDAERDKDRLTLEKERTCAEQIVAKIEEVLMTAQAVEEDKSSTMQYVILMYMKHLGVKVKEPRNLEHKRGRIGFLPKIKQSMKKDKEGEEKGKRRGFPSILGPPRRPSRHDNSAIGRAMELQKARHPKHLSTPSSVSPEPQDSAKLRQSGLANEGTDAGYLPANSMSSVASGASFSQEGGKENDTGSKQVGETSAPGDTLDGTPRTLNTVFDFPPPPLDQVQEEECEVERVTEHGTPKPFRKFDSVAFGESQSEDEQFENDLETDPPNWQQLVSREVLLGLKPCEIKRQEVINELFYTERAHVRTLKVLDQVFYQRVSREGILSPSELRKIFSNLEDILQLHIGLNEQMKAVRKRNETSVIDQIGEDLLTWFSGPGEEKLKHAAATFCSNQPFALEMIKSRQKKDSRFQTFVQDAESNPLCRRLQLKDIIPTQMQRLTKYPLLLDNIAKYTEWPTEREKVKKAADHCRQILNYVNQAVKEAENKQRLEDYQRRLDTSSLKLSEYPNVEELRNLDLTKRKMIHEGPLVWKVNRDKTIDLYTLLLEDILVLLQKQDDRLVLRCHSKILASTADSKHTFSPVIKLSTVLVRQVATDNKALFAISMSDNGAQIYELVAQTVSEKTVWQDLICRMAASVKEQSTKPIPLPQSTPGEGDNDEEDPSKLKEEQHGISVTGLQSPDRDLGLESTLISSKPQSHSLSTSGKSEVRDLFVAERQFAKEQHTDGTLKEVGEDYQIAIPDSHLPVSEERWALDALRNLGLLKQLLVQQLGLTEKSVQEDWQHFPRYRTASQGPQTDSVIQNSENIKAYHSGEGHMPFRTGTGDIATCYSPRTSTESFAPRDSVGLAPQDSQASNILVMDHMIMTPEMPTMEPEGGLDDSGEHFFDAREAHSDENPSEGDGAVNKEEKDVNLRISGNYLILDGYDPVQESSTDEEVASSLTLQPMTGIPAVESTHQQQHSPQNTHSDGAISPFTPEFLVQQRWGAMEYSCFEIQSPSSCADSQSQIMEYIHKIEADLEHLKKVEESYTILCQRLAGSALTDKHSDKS

Mus musculus [12] = species on record: Mus musculus; assay: Inhibition of RhoGEF in mouse NIH/3T3 cells assessed as inhibition of 10% calf serum-induced RhoA-GTP formation by measuring relative RhoA-GTP level at 15 uM in presence of 15 uM Rhosin/G04 incubated for 24 hrs by densitometry (reference value: 1); assay type: cell-based
MCF7 [13] = assay: Inhibition of cell migration of human MCF7 cells at 10 to 50 uM; assay type: functional, cell-based
MCF7 [14] = assay: Inhibition of RhoGEF in human MCF7 cells derived mammospheres assessed as inhibition of 10% calf serum-induced RhoA-GTP formation by measuring relative RhoA-GTP level at 2.5 uM in presence of 2.5 uM Rhosin/G04 incubated for 24 hrs by densitometry (reference value: 1); assay type: cell-based
Mus musculus [15] = species on record: Mus musculus; assay: Inhibition of RhoGEF in mouse NIH/3T3 cells assessed as inhibition of 10% calf serum-induced Rac1-GTP formation by measuring Rac1-GTP level at 10 uM incubated for 24 hrs by densitometry relative to control (reference value: 2.86); assay type: cell-based
Mus musculus [16] = species on record: Mus musculus; assay: Inhibition of RhoGEF-mediated RhoA signaling in mouse NIH/3T3 cells assessed as inhibition of SDF1a-induced phospho-MLC formation at 10 to 30 uM incubated for 24 hrs by densitometry; assay type: cell-based
MCF7 [17] = assay: Growth inhibition of human MCF7 cells at 5 to 50 uM; assay type: functional, cell-based
[18] = target: T1, Rho guanine nucleotide exchange factor 12 (Homo sapiens, UniProt Q9NZN5); assay: Inhibition of human LARG (765 to 1138 residues) RhoGEF binding to human full length RhoA (1 to 193 residues)
T1 sequence (Q9NZN5 whole entry, the tested form may be a part): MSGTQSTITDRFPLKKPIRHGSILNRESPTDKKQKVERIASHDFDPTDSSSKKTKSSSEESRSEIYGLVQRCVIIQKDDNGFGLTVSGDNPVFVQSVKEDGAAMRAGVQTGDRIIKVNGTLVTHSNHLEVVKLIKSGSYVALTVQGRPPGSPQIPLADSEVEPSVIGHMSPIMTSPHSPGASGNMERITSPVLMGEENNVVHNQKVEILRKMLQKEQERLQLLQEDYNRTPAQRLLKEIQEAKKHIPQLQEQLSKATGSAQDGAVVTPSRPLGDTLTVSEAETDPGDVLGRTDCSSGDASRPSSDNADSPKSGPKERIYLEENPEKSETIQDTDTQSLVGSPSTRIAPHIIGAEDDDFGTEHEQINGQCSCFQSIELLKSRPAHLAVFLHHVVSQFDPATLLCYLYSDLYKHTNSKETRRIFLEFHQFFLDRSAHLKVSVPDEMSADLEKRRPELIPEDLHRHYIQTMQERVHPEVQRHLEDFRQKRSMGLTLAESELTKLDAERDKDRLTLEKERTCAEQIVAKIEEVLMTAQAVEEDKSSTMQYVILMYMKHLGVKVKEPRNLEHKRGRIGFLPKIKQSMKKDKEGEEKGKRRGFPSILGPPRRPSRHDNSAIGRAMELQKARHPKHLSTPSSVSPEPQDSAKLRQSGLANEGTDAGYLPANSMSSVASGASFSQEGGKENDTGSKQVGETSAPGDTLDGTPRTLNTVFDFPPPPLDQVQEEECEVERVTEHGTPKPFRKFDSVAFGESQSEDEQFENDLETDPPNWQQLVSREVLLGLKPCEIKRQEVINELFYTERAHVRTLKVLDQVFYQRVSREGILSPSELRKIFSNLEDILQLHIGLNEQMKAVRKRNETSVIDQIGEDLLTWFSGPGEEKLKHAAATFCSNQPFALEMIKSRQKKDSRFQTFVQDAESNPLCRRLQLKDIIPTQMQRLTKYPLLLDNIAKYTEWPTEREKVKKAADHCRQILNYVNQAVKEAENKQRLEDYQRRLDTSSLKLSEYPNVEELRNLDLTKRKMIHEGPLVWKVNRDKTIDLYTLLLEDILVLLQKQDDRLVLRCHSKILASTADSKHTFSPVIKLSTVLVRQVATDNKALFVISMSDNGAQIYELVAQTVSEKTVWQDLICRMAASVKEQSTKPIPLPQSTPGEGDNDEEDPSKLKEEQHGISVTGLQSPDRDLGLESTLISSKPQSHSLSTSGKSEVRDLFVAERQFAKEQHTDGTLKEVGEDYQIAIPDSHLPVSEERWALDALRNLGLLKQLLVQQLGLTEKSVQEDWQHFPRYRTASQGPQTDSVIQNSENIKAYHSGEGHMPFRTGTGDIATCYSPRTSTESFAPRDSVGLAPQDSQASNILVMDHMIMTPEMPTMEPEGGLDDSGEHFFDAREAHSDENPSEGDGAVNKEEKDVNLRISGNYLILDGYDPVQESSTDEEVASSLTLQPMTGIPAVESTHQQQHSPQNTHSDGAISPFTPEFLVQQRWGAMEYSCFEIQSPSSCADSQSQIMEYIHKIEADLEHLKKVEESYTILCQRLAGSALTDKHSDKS

[19] = target: T2, RhoGEF 1/Transforming protein RhoA (Homo sapiens) (UniProt P61586+Q92888); assay: Binding affinity to human LARG (765 to 1138 residues) DH-PH module expressed in mouse NIH/3T3 cells assessed as reduction in LARG binding to human full length RhoA (1 to 193 residues) by measuring relative LARG binding level at 15 uM in presence of 15 uM Rhosin/G04 pull-down assay (reference value: 1 No unit); assay type: cell-based
MCF7 [20] = assay: Growth inhibition of human MCF7 cells at 2.5 to 15 uM in presence of 2.5 to 15 uM Rhosin/G04; assay type: functional, cell-based
MCF7 [21] = assay: Inhibition of RhoGEF in human MCF7 cells derived mammospheres assessed as inhibition of RhoA-mediated phospho-MLC formation at 2.5 uM in presence of 2.5 uM Rhosin/G04 incubated for 24 hrs by densitometry; assay type: cell-based
[22] = target: T2, RhoGEF 1/Transforming protein RhoA (Homo sapiens); assay: Binding affinity to human LARG (765 to 1138 residues) DH-PH module expressed in mouse NIH/3T3 cells assessed as reduction in LARG binding to human full length RhoA (1 to 193 residues) by measuring relative LARG binding level at 5 uM pull-down assay (reference value: 1 No unit); assay type: cell-based
[23] = target: T1, Rho guanine nucleotide exchange factor 12; assay: Binding affinity to recombinant human LARG (765 to 1138 residues) containing DH-PH catalytic module by microscale thermophoresis analysis
MCF7 [24] = assay: Inhibition of cell migration of human MCF7 cells at 2.5 to 30 uM in presence of 2.5 to 30 uM Rhosin/G04; assay type: functional, cell-based
Mus musculus [25] = species on record: Mus musculus; assay: Inhibition of RhoGEF in mouse NIH/3T3 cells assessed as inhibition of 10% calf serum-induced RhoA-GTP formation by measuring reduction in RhoA-GTP level at 2.5 uM in presence of 2.5 uM Rhosin/G04 incubated for 24 hrs by densitometry relative to control; assay type: cell-based
[26] = target: Intersectin-1 (Homo sapiens) (UniProt Q15811); assay: Inhibition of GST-tagged human intersectin-1 (1227 to 1571 residues) RhoGEF-catalyzed guanine nucleotide-exchange reaction of human full length Cdc42 (1 to 191 residues) by measuring inhibition of the GDP dissociation from Cdc42 at 0.76 to 250000 nM by Alexa 647 fluorescence dye based GDP/GTP exchange assay
Chain of Intersectin-1 (Homo sapiens) (Q15811 whole entry, the tested form may be a part): as the sequence (Q15811 whole entry, looked up, the tested form may be a part) above

Mus musculus [27] = species on record: Mus musculus; assay: Inhibition of RhoGEF in mouse NIH/3T3 cells assessed as inhibition of 10% calf serum-induced RhoA-GTP formation by measuring reduction in RhoA-GTP level at 30 uM incubated for 24 hrs by densitometry relative to control; assay type: cell-based

Cc1cccc(COc2cccc(/C=C3\C(=O)NN(c4ccccc4)C3=O)c2)c1
fold change (FC) (Mus musculus [1]): 0.87
fold change (FC) (Mus musculus [2]): 1.09
fold change (FC) (MCF7 [3]): 0.11
fold change (FC) (MCF7 [4]): 0.77
inhibition [5]: inactive
inhibition [6]: inactive
inhibition [7]: inactive
inhibition (Mus musculus [8]): inactive
fold change (FC) (MCF7 [9]): 0.4
inhibition (Mus musculus [10]): Active
Kd [11]: 79 nM
fold change (FC) (Mus musculus [12]): 0.25
inhibition (MCF7 [13]): Active
fold change (FC) (MCF7 [14]): 0.27
fold change (FC) (Mus musculus [15]): 1.83
inhibition (Mus musculus [16]): Active
growth inhibition (GI) (MCF7 [17]): Active
IC50 [18]: 5000 nM
fold change (FC) [19]: 0.03
growth inhibition (GI) (MCF7 [20]): Active
inhibition (MCF7 [21]): 70%
fold change (FC) [22]: 0.73
Kd [23]: 65 to 76 nM
inhibition (MCF7 [24]): Active
inhibition (Mus musculus [25]): 50%
inhibition [26]: inactive
inhibition (Mus musculus [27]): 80%
